Values after ≈ are worked out from the molar mass of the structure shown. Residues, ends and D or L forms follow the SMILES beside them.
Assays:
[1] = tested on: human primary dermal fibroblasts; assay: Cell proliferation assay (MTT); format: cell-based; settings: 72 h, serum-free DMEM, dose-response relationship, peptide at 50 μg/mL
Description: Biopsies of healthy human skin were obtained aseptically from three donors (47–69 years old) undergoing circumcision after obtaining their written informed consent. All the procedures were approved by the Ethics Committee of Medical University of Gdansk (NKEBN/483/2011. Issued: 2011-12-19). The samples were washed several times with sterile PBS (Sigma-Aldrich, Germany) containing antibiotic (200 U/mL penicillin and 200 μg/mL streptomycin), after which, the subcutaneous tissue was cut off with a sharp blade. The resulting sheets were cut into small fragments, washed two times with sterile PBS and treated with 6 U/mL dispase II (BD, USA) overnight at 4°C to separate epidermis and dermis. The dermis was then digested with 1.0 mg/mL collagenase type I (from Clostridium histolyticum Sigma-Aldrich, Germany) for 2 hours at 37°C to isolate fibroblasts. Cells were used between the 2nd and 4th passage in all experiments.
(§1) In our study two kind of cells were used: immortalized human HaCaT keratinocytes (DKFZ Heidelberg, Germany) and primary dermal fibroblasts obtained from 3 healthy donors. Both types of the used cell lines were grown in Dulbecco's modified Eagle's medium (DMEM) (Sigma–Aldrich, Germany), that contained […] of glucose, […] of L-glutamine, sodium pyruvate and sodium bicarbonate. Additionally, medium was supplemented with 10% of FCS (fetal calf serum, Sigma-Aldrich, Germany), 100 U/mL of penicillin and 100 μg/mL streptomycin (Sigma-Aldrich, Germany). The cells were grown in culture dishes (BD, USA) under standard conditions in a humidified atmosphere with 5% CO2 at 37°C and medium was changed every 2 days.
The fibroblasts and keratinocytes were seeded at density of 4500 and 6000 cells per well, respectively, into 96-well plates suspended in a medium supplemented with 10% of FCS. After 24 h the media were exchanged with serum- and antibiotic- free DMEM and tested peptides dissolved in PBS were added yielding final concentration ranging from 1 to 50 μg/mL. Cells were incubated for the next 24 hours, when the medium was exchanged again and fresh portion of peptides (used at the same concentrations as previously) was added. Incubation was continued for the next 48 hours (the overall time of cell exposition to peptide was 72 h). […] After 15 min when the purple crystals of formazan were fully solubilized, absorbance was read at 570 nm with a plate reader. […]
Fig 1 Pro-proliferative activity of the tested peptides towards human keratinocytes (A) and fibroblasts (B). […] The data represents results of MTT assay expressed as the percentage of the cell viability in comparison to their control sample (cells incubated in serum-free DMEM without tested peptides), additional positive control corresponds to the cells incubated in the presence of 10% FCS. […]

[2] = Circular dichroism, alpha-helical content; format: physicochemical; settings: CD, mean residue ellipticity at 222 nm (Eq 1), peptide 0.4 mg/ml in 30 mM SDS, room temperature
Description: Circullar dichroism spectra of analyzed compounds were recorded on a Jasco J-815 spectropolarimeter using a quartz cell of 1 mm path length between 195–260 nm at room temperature. Peptides at concentration of 0.4 mg/ml were dissolved in water or 30 mM SDS solution. SDS micelle system was used as the simplified model of negatively charged lipid membrane. On the basis of the obtained results the alpha-helical content was determined from the mean residue ellipticities at 222 nm according to Eq 1: %Helix=([θ]obs/([θ]helixx(1−2.57/l))x100, (1) where [θ] obs is the experimentally observed mean-residue ellipticity at 222 nm, [θ]helix is the theoretical ellipticity of peptide of infinite length with a 100% helix population, taken as -39 500 deg·cm^2/dmol, and l is the number of peptide bonds.
Circular dichroism method was applied to obtain a basic information about the secondary structure of the synthesized compounds (with the exception of CAR, CAR3, DAL, CTEN2) in two chemical environments, water and 30 mM SDS. As expected, all the tested compounds in water adopted a random-coil structure, while in the presence of 30 mM SDS most of them formed α-helices with characteristic negative minima around 208 and 220 nm. […] The examples of CD spectra for selected peptides could be seen in supporting information (Figure A in S1 File). On the basis of the experimentally obtained values of the mean residue ellipticities of peptides at 222 nm their alpha-helical content was calculated according to the Eq 1 (Table 1).

[3] = tested on: immortalized human HaCaT keratinocytes; assay: Cell proliferation assay (MTT); format: cell-based; settings: 72 h, serum-free DMEM, peptide at 1–25 μg/mL
Description: as §1
The fibroblasts and keratinocytes were seeded at density of 4500 and 6000 cells per well, respectively, into 96-well plates suspended in a medium supplemented with 10% of FCS. After 24 h the media were exchanged with serum- and antibiotic- free DMEM and tested peptides dissolved in PBS were added yielding final concentration ranging from 1 to 50 μg/mL. Cells were incubated for the next 24 hours, when the medium was exchanged again and fresh portion of peptides (used at the same concentrations as previously) was added. Incubation was continued for the next 48 hours (the overall time of cell exposition to peptide was 72 h). At the end of the experiment cells were treated with 20 μL of MTT (5 mg/mL in PBS). After 3 h at 37°C under 5% CO2 medium was discarded and replaced by 6mM HCl in isopropanol. After 15 min when the purple crystals of formazan were fully solubilized, absorbance was read at 570 nm with a plate reader. The optical density reflects the level of cell viability as MTT is converted in purple formazan product only in the presence of viable mitochondria of the living cells.
Fig 1 Pro-proliferative activity of the tested peptides towards human keratinocytes (A) and fibroblasts (B). Cells were incubated for 72 hours in serum-free DMEM medium in the presence of peptides applied at concentrations of 1,10, 25 and 50 μg/mL, respectively. The data represents results of MTT assay expressed as the percentage of the cell viability in comparison to their control sample (cells incubated in serum-free DMEM without tested peptides), additional positive control corresponds to the cells incubated in the presence of 10% FCS. All experiments were performed independently in triplicate. *P < 0.05, **P < 0.01, ***P < 0.001 vs. control.
In order to evaluate a long-term effect of peptides, experiments were carried out for 72 hours. Before addition of the tested compounds, the cell medium was exchanged for the fresh one not containing any serum or antibiotic.

B. cereus = format: cell-based; settings: 24 h
Description: (§2) Luria-Bertani broth (LB) and Sabouraud Dextrose broth (SB) (Biocorp, Poland) were used for cultivation of bacteria and fungi strains, respectively. Antimicrobial activity of peptides was analyzed through determination of MIC (minimal inhibitory concentration) parameter according to the standard microdilution technique performed on 96-well plates. Mueller-Hinton broth (MHB) was used as the working medium for all bacterial strains, while in case of fungi it was additionally supplemented with 2% glucose.
(§3) Briefly, inoculum was prepared from freshly grown cultures of microorganisms being at their exponential phase of growth. Each well of 96-well plates containing 100 μL of serially diluted peptides in PBS (phosphate buffer saline) at concentration ranging from 2 to 250 μg/mL were inoculated with 100 μL of approximately 10^5 CFU/mL of bacterial suspension or about 2.5 x 10^3 CFU/mL of fungi suspended in a double concentrated Mueller-Hinton broth (supplemented with 2% glucose for Candida spps.). Then plates were incubated overnight at 37°C and absorbance was read at 590 nm after 24 h. Cultures without peptide were treated as positive control, while uninoculated Mueller-Hinton broth was defined as negative control. All measurements were run at least in triplicate.
(§4) All peptides were screened against the wide range of microorganisms, including Gram-negative, Gram-positive bacteria and fungi from Candida species (Table 2). Broth microdilution method for MIC determination was used as a standard procedure. All assays were performed on liquid Mueller-Hinton broth, which was additionally supplemented with 2% glucose when fungicidal activity towards Candida spps. was analyzed.

[4] = tested on: Pseudomonas aeruginosa (PCM 499); format: cell-based; settings: PCM 499, 24 h
Source text: (§5) Escherichia coli (PCM 2057), Staphylococcus aureus (PCM 2054), Staphylococcus epidermidis (PCM 2118), Pseudomonas aeruginosa (PCM 499) were obtained from Polish Collection of Microorganisms. Fungi strains Candida albicans (CCM 8186), Candida glabrata (CCM 8270), Candida parapsilosis (CCM 8260), Candida krusei (CCM 8271), Candida tropicalis (CCM 8264) were acquired from Czech Collection of Microorganisms.
as §2, §3, §4

[5] = tested on: Staphylococcus aureus (PCM 2054); format: cell-based; settings: PCM 2054, 24 h
Source text: as §5, §2, §3, §4

[6] = tested on: Escherichia coli (PCM 2057); format: cell-based; settings: PCM 2057, 24 h
Source text: as §5, §2, §3, §4

[7] = tested on: Staphylococcus epidermidis (PCM 2118); format: cell-based; settings: PCM 2118, 24 h
Source text: as §5, §2, §3, §4

CC(C)C[C@H](NC(=O)CNC(=O)[C@@H](N)CCC(=O)O)C(=O)N[C@@H](CCC(=O)O)C(=O)N1CCC[C@H]1C(=O)NCC(=O)NCCOCCOCC(=O)N[C@@H](CCCCN)C(=O)N[C@@H](CCCCN)C(=O)N[C@H](C(=O)N[C@H](C(=O)N[C@@H](Cc1ccccc1)C(=O)N[C@@H](Cc1c[nH]c2ccccc12)C(=O)N[C@H](C(=O)N[C@@H](CCCCN)C(=O)N[C@@H](Cc1ccccc1)C(=O)N[C@@H](CCCCN)C(N)=O)C(C)C)C(C)C)C(C)C [CTEN2-PEG-KSLW] (HELM PEPTIDE1{E.G.L.E.P.G.[O=C(COCCOCCN[*:1])[*:2]].K.K.V.V.F.W.V.K.F.K.[am]}$$$$V2.0; N-terminus assumed)
Effect on fibroblast cell count (MTT), in words [1]: highest cell count
α-helicity [2]: 27%
Effect on HaCaT proliferation (MTT), in words [3]: noticeable pro-proliferatory activity
MIC B. cereus (B. cereus): >125 µg/mL
MIC P. aeruginosa [4]: >125 µg/mL
MIC S.aureus [5]: >125 µg/mL
MIC E.coli [6]: >125 µg/mL
MIC S. epidermidis [7]: 7.8 µg/mL (≈ 3.83 µM)

From PMC4608580, “Synthesis and Evaluation of Biological Activity of Antimicrobial – Pro-Proliferative Peptide Conjugates” (PLoS ONE, 2015)
